Measured values: patent US11014953B2, “Trigger-activatable metabolic sugar precursors for cancer-selective labeling and targeting” (priority 2015, dated 2021)
Peptide text beside a SMILES is read from it. * marks the point of attachment. Cbz = O=C(OCc1ccccc1)*

Legend:
[1] = tested on: LS174T colon cancer cells; test: Metabolic labeling of LS174T cells with azido-sugars, azides detected by DBCO-Cy5 (confocal imaging, flow cytometry); format: cell-based
Description: General procedures for confocal imaging of azido-sugar labeled cells. Cells were seeded onto coverslips in a 6-well plate at a cell density of 40 k/well. Ac4ManAz or Ac3ManAz derivatives were added with a final concentration of 50 μM and the cells were incubated at 37° C. for 72 h. The medium was removed and washed with PBS for three times. DBCO-Cy5 (50 μM) in Opti-MEM was then added and the cells were incubated for another 1 h. Then the medium was removed and the cells were washed with PBS for three times. 4% paraformaldehyde (PFA) solution was added to fix the cells for 10 min, followed by staining of cell nucleus with DAPI (2 μg/mL) for 10 min. The coverslips were mounted on microscope slides with the addition of ProLong Gold antifade reagent, and the prepared sample was stored in dark for imaging.
General procedures for flow cytometry analysis of azido-sugar labeled cells. Cells were seeded onto coverslips in a 6-well plate at a cell density of 40 k/well. Ac4ManAz or Ac3ManAz derivatives were added and incubated with cells for 72 h. After removal of medium and multiple washing steps, DBCO-Cy5 in opti-MEM was added and incubated with cells at 37° C. for 1 h. The opti-MEM was then removed and cells were washed with PBS for three times. Cells were lifted by incubating with trypsin solution (1 mL) at 37° C. for 3 min and transferred to test tubes with addition of 4% PFA solution (0.5 mL). Twenty thousand cells per sample were analyzed by flow cytometry and data analysis was performed on the FCS Express software.
Ac3ManAzNB mediated controlled cell labeling. LS174T cells were seeded onto coverslips in a 6-well plate at a cell density of 40 k/well. Ac3ManAzNB with a final concentration of 50 μM was added. […] Cells without UV irradiation were continuously incubated for 72 h. Cell samples for confocal imaging and flow cytometry were then prepared following the above-mentioned procedures.
Ac3ManAzHQ mediated controlled cell labeling. LS174T colon cancer cells or Caco-2 colon cancer cells or human fibroblast IMR90 cells were seeded onto coverslips in a 6-well plate at a cell density of 40 k/well and allowed to attach for overnight. Ac3ManAzHQ with a final concentration of 50 μM was added, followed by the addition of curcumin with a final concentration of 50 μM. Cells treated with PBS or Ac3ManAzHQ only were used as control. After 72-h incubation, cell samples for confocal imaging and flow cytometry were prepared following the above-mentioned procedures.
E-S mediated controlled cell labeling in vitro. LS174T colon cancer cells or human fibroblast IMR90 cells were seeded onto coverslips in a 6-well plate at a cell density of 40 k/well. E-S with a final concentration of 50 μM was added, followed by the addition of either TSA (1 μM) or Z-FY-CHO (50 μM). Cells treated with PBS or E-S only were used as the control. After 72-h incubation, the medium was removed and cell samples for confocal imaging and GE-Analyzer measurements were prepared similarly to above-mentioned procedures.

[2] = tested on: MDA-MB-231 breast cancer cells; test: E-S mediated in vitro labeling of MDA-MB-231 cells; format: cell-based
Description: E-S mediated in vitro labeling of MDA-MB-231 cells. MDA-MB-231 breast cancer cells were seeded onto coverslips in a 6-well plate at a cell density of 40 k/well. E-S with a final concentration of 50 μM was added, followed by the addition of either TSA (1 μM) or Z-FY-CHO (50 μM). Cells treated with PBS or E-S only were used as control. After 72-h incubation, the medium was removed and cell samples for confocal imaging and IN cell Analyzer measurements were prepared following the above-mentioned procedures.

[3] = tested on: cellular HDAC/CTSL activity; test: Inhibitory effect of TSA and Z-FY-CHO on cellular HDAC/CTSL activity (Naph-Lys reporter); format: cell-based
Description: Detection of cellular HDAC/CTSL activity. Cells were seeded in a 24-well plate at a cell density of 8 k/well, and were allowed to attach for overnight. Naph-Lys (50 μM) in OptiMEM was added and incubated with cells for different time (30 min, 1 h, 2 h, and 4 h). After removal of the OptiMEM and washing with PBS twice, cells were fixed with 4% PFA for 10 min and stained with DAPI (2 ng/mL) for 10 min. Average fluorescence intensity of cells were measured on a GE-Analyzer using DAPI and FITC channels. The DAPI channel was used for determining cell number per well. The FITC channel was used to determine the total fluorescence intensity of released Naph-NH2 per well. Data were presented with the average fluorescence intensity per cell.
Inhibitory effect of TSA and Z-FY-CHO on cellular HDAC/CTSL activity. TSA and Z-FY-CHO are known to be the inhibitor of HDAC and CTSL, respectively. To study their inhibitory effect, cells were seeded in a 24-well plate at a cell density of 8 k/well, and were allowed to attach for overnight. Cells were then divided into 4 groups: group 1 cells were added Naph-Lys (50 μM); group 2 cells were added Naph-Lys (50 μM)+TSA (1 μM); group 3 cells were added Naph-Lys (50 μM)+Z-FY-CHO (20 μM); group 4 cells were added PBS as negative control. […] Average fluorescence intensity of cells were measured on a GE-Analyzer using DAPI and FITC channels.

LS174T cells [4] = test: Western blot analysis of LS174T cells treated with azido-sugars; format: cell-based
Description: Western blot analysis of cells treated with azido-sugars. LS174T cells were seeded onto cell culture flasks (25 cm^2 growth area) at a density of 1×10^6 cells per plate in 5 mL of media. Different azido-sugars were added and incubated with cells for 72 h. The cells were washed with PBS twice and harvested from the flasks using a cell scraper. Cells were pelleted by centrifugation at 1000 rpm for 5 min and re-suspended in 200 μL of lysis buffer (1% SDS, 100 mM Tris.HCl, pH 7.4) containing 1 tablet protease inhibitor (EDTA-free). The lysate was incubated at 4° C. for 30 min, followed by centrifugation at 3000 rcf for 10 min to remove insoluble debris. The total concentration of soluble protein in each sample was determined by bicinchoninic acid (BCA) assay and adjusted to the same concentration. Then 20 μL of the lysate was taken out and incubated with phosphine-PEG3-biotin (2 μL, 5 mM in PBS) at 37° C. for 6 h. Loading buffer was added to each sample and samples were loaded onto 10% SDS-PAGE gel after heating at 95° C. After running the gel for 100 min, proteins were transferred to Hybond P membrane, followed by blocking of the membrane with 5% bovine serum albumin (BSA) in TBST (50 mM Tris.HCl, 150 mM NaCl, 0.1% Tween 20, pH 7.4) for 2 h. The membrane was then incubated with streptavidin-HRP (diluted 1:2000 in TBST) overnight at 4° C., rinsed with TBST for three times and developed by ECL Western Blotting Substrate. For fluorescent visualization of protein bands, 20 μL of cell lysate was directly incubated with DBCO-Cy3 solution for 3 h. After the gel running and membrane transfer, protein bands were visualized using an Image Quant LAS 4010 system with a Cy3/Cy3 (excitation/emission) channel.

[5] = tested on: subcutaneous LS174T tumors; test: In vivo tumor labeling after intratumoral injection of azido-sugars, DBCO-Cy5 i.v.; parameters: species or system athymic nude mice; conditions: for In vivo Cy5 fluorescence intensity of pretreated left tumors vs control right tumors: 24 h p.i. of i.v. DBCO-Cy5; for Ex vivo difference in Cy5 FI between treated tumors and control tumors: ex vivo imaging of tumors; for Western blot of tumors (azido-modified glycoproteins): intratumoral once daily for three days, tumors harvested 24 h p.i.; for Cy5 fluorescence of tumor sections (confocal imaging): tumor sections after ex vivo imaging
Description: In vivo tumor labeling of Ac4ManAz, Ac3ManAzEt, and Ac3ManAzNB. LS174T tumor models were established on 6 week-old athymic nude mice by subcutaneous injection of LS174T colon cancer cells (1.5 million) in HBSS/matrigel (1/1, v/v) to both flanks. When the tumors grew to 5-6 mm, Ac4ManAz or Ac3ManAzEt or Ac3ManAzNB (25 mM, 20 μL) was injected into the left tumors once daily for three days while the same amount of PBS was injected to the right tumors as control (N=3 per group). At 24 h post the last injection, DBCO-Cy5 (5 mg/kg) was i.v. injected and its biodistribution was monitored via in vivo fluorescence imaging. Prior to imaging, nude mice were placed on the sample stage equipped with anesthesia input and output ports, and imaged by the Maestro In-Vivo Fluorescence Imaging System. The excitation filter of 575-605 nm was used. The tunable emission filter was automatically stepped in 10-nm increments from 630 to 850 nm with an exposure time of 50 ms for images taken at each wavelength. Collected images were analyzed by the Maestro software, which uses spectral unmixing algorithms to subtract autofluorescence from Cy5 signals. Tumors and major organs were harvested from mice at 24 h post injection of DBCO-Cy5. Ex vivo images were collected similarly using the Maestro system. Fluorescence intensity at selected ROIs was quantified using Maestro imaging software. All values were presented as means±standard deviation (n=3).
Western blot analysis of tissues. Tumors and organs harvested from azido-sugar treated mice were transferred into glass tubes containing 2 mL of lysis buffer (1% SDS, 100 mM Tris HCl, pH 7.4), homogenized, and incubated at 4° C. for 30 min. The lysates were then centrifuged at 3000 rcf for 10 min to remove the insoluble debris. Total soluble protein concentrations were determined by BCA assay and adjusted to 5 mg/mL for each group. The rest of procedures were the same as the above-mentioned western blot analysis of cells.
Confocal imaging of tumor tissue sections. After ex vivo imaging, tumors were directly frozen in O.C.T. compound and sectioned on a cryostat (Leica CM3050S) with a thickness of 6-8 μm. DAPI in PBS (2 μg/mL) was added onto the tissue-attaching microscope slides to stain cell nucleus. After 10 min, DAPI solution was removed and tissues were washed with PBS for three times. Coverslips were mounted on the microscope slides with the addition of ProLong Gold antifade reagent, and the prepared sample was stored in dark for confocal imaging.

LS174T cells [6] = test: Uptake mechanism of DBCO-Cy5 in E-S pretreated LS174T cells; format: cell-based
Description: Uptake mechanism of DBCO-Cy5 or D-D in vitro. LS174T cells were seeded onto a tissue culture dish with cover glass bottom, and incubated with E-S (50 μM) for three days. After multiple washing with PBS, Lysotracker green in fresh medium was added and incubated for 1 h. Then DBCO-Cy5 was added and cells were further incubated for 1 h. Hoechst 33342 (10 μg/mL) and CellMask orange plasma membrane stain (1 μg/mL) were added to stain cell nucleus and cell membrane, respectively for 10 min. After removing the medium and washing with PBS, cells were further incubated at 37° C. At different time points (1 h, 3 h, 6 h, 12 h, and 24 h), cells were imaged under a fluorescence microscope to monitor the uptake of DBCO-Cy5. Cells without E-S pretreatment were used as control. For live cell imaging of D-D treated cells, CellMask deep red plasma membrane stain was used to stain cell membrane and lysosomes were not stained to avoid the interference over fluorescence signals of D-D.

O=C[C@H](Cc1ccc(O)cc1)NC(=O)[C@H](Cc1ccccc1)NC(=O)OCc1ccccc1 [Z-FY-CHO] (Cbz-Phe-Tyr-aldehyde)
Labeling efficiency of E-S on co-incubation with inhibitor ([1]; LS174T cells co-incubated with E-S and inhibitor): greatly reduced | Labeling efficiency of E-S in the presence of inhibitor [2]: significantly decreased the labeling efficiency | Turn-on fluorescence intensity of Naph-Lys in the presence of the inhibitor [3]: greatly decreased

CC(=O)OC[C@H]1OC(OCc2ccccc2[N+](=O)[O-])[C@@H](NC(=O)CN=[N+]=[N-])[C@@H](OC(C)=O)[C@@H]1OC(C)=O (stereo partly drawn) [Ac3ManAzNB]
Western blot of azido-glycoproteins (LS174T cells [4]; with UV): a series of protein bands | Western blot of azido-glycoproteins (LS174T cells [4]; without UV): the same two endogenous biotinylated protein bands as PBS group | Cy5 fluorescence on the cell surface (CLSM) ([1]; LS174T cells, three days, with UV irradiation (10 min, 10 mW/cm^2)): strong Cy5 fluorescence | Cy5 fluorescence on the cell surface (CLSM) ([1]; LS174T cells, three days, without UV irradiation): negligible Cy5 fluorescence on cell surface | Cy5 fluorescence by flow cytometry ([1]; LS174T cells, with UV irradiation compared with Ac3ManAzNB only): significantly enhanced Cy5 fluorescence | In vivo Cy5 fluorescence intensity of pretreated left tumors vs control right tumors [5]: negligible Cy5 retention enhancement | Ex vivo difference in Cy5 FI between treated tumors and control tumors [5]: no significant difference | Western blot of tumors (azido-modified glycoproteins) [5]: the same endogenous protein bands as PBS group | Cy5 fluorescence of tumor sections (confocal imaging) [5]: negligible Cy5 fluorescence

CCOC1O[C@H](COC(C)=O)[C@@H](OC(C)=O)[C@H](OC(C)=O)[C@@H]1NC(=O)CN=[N+]=[N-] (stereo partly drawn) [Ac3ManAzEt]
Western blot of azido-glycoproteins (biotinylated with phosphine-PEG3-biotin) (LS174T cells [4]; 72 h): only two endogenous biotinylated proteins | Cy5 fluorescence on the cell surface (CLSM) ([1]; LS174T cells, 50 μM azido-sugar three days (72 h), then DBCO-Cy5 1 h): negligible Cy5 fluorescence on the cell surface | In vivo Cy5 fluorescence intensity of pretreated left tumors vs control right tumors [5]: negligible Cy5 retention enhancement | Ex vivo difference in Cy5 FI between treated tumors and control tumors [5]: no significant difference | Western blot of tumors (azido-modified glycoproteins) [5]: the same endogenous protein bands as PBS group | Cy5 fluorescence of tumor sections (confocal imaging) [5]: negligible Cy5 fluorescence

CC1(C)C(/C=C/C=C/C=C2/N(CCCCCC(=O)NCCC(=O)N3Cc4ccccc4C#Cc4ccccc43)c3ccc(S(=O)(=O)O)cc3C2(C)C)=[N+](CCCS(=O)(=O)[O-])c2ccc(S(=O)(=O)O)cc21 [DBCO-Cy5]
Further incubation time at which DBCO-Cy5 completely disappeared from the cell membrane (LS174T cells [6]; E-S pretreated LS174T cells): 12 h | Cy5 signal in control cells without E-S pretreatment (passive uptake) (LS174T cells [6]; LS174T, DBCO-Cy5 1 h): Negligible Cy5 signal

COc1cc(/C=C/C(=O)CC(=O)/C=C/c2ccc(O)c(OC)c2)ccc1O [curcumin]
Labeling efficiency of Ac3ManAzHQ on co-incubation with NQO1 inhibitor ([1]; LS174T cells, compared with Ac3ManAzHQ only): significant reduction of labeling efficiency
